Each structure is given as a SMILES string.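 Following 48 hours of exposure in 96-well plates, responses at five concentrations were used to interpolate endpoints linearly. GI50: concentration for 50% inhibition of growth. TGI: total growth inhibition.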

Here are results for 14 molecules from PubChem BioAssay (NCI).

Among the test systems are HT29 colon; SW-620 colon; OVCAR-5 ovarian; COLO 205 colon; SNB-75 CNS; SN12C renal; NCI-H226 lung; NCI/ADR-RES ovarian; NCI-H460 lung; CCRF-CEM leukemia.
Holding throughout (test): growth of human tumour cells (NCI), 48 h

As to `CCOC1=C/C(=N\Nc2ccc([N+](=O)[O-])cc2)CCC1`, the TGI was 67.9 µM with HT29 colon; > 100 µM in the assay on SW-620 colon; > 100 µM in the assay with OVCAR-5 ovarian; 51.3 µM in the assay on COLO 205 colon; 73.1 µM in the assay with SNB-75 CNS; > 100 µM with SN12C renal. In addition, the TGI with NCI-H226 lung, with NCI/ADR-RES ovarian and in the assay with NCI-H460 lung was > 100 µM each time.

`O=C(CC1(O)CCCCC1)OC1CCCC1`: the TGI in the assay with HT29 colon, with OVCAR-5 ovarian, with COLO 205 colon, in the assay with SNB-75 CNS, in the assay on SN12C renal and in the assay on NCI-H226 lung was > 100 µM throughout. The TGI in the assay with NCI/ADR-RES ovarian and in the assay on NCI-H460 lung was > 100 µM throughout.

`Nc1ccccc1SC(/C=C/NNC1=NC(c2ccccc2)C(c2ccccc2)=NN1)c1ccccc1` (centres undefined): the TGI with HT29 colon turned out to be 34.8 µM; in the assay with SW-620 colon, 29.1 µM; in the assay on OVCAR-5 ovarian it was 37.1 µM; in the assay with COLO 205 colon it was 29 µM; with SNB-75 CNS it was 17.8 µM; in the assay with SN12C renal it was 31.5 µM. The TGI in the assay on NCI-H226 lung stood at 30.4 µM; in the assay on NCI-H460 lung, 51.9 µM; in the assay on CCRF-CEM leukemia it was 7.94 µM.

Regarding `CCNC(=O)COc1ccc(Cl)c(C)c1`, the TGI with HT29 colon, with SW-620 colon, in the assay on OVCAR-5 ovarian, with COLO 205 colon, in the assay with SNB-75 CNS and in the assay on SN12C renal was > 100 µM each time. Moreover, the TGI in the assay with NCI-H226 lung, in the assay with NCI-H460 lung and in the assay on CCRF-CEM leukemia was > 100 µM throughout.

As to `Cc1cc(C)nc(NC(=O)COc2ccc(Cl)cc2)c1`, the TGI with HT29 colon, in the assay with SW-620 colon, in the assay on OVCAR-5 ovarian, in the assay with COLO 205 colon, with SNB-75 CNS and in the assay on SN12C renal was > 100 µM throughout. Also, the TGI in the assay with NCI-H226 lung, with NCI/ADR-RES ovarian and in the assay on NCI-H460 lung was > 100 µM each time.

In the case of `Cc1nc(Nc2ccc(Cl)cc2)sc1C(=O)Nc1cccc2c(=O)[nH][nH]c(=O)c12`, the TGI with HT29 colon is 41.6 µM; in the assay on SW-620 colon, > 100 µM; in the assay on OVCAR-5 ovarian, > 100 µM; with COLO 205 colon, 34 µM; with SNB-75 CNS, 83.4 µM; with SN12C renal it was > 100 µM. Moreover, the TGI is > 100 µM with NCI-H226 lung, 88.6 µM with NCI-H460 lung and 79.5 µM with CCRF-CEM leukemia.

Turning to `O=C(NCCCN1CCN(CCCNC(=O)Nc2cc(Cl)ccc2Cl)CC1)Nc1cc(Cl)ccc1Cl`, the TGI in the assay on HT29 colon was > 100 µM; with SW-620 colon, > 100 µM; in the assay on OVCAR-5 ovarian, > 100 µM; in the assay on COLO 205 colon, > 100 µM; in the assay on SNB-75 CNS, 82 µM; in the assay with SN12C renal, > 100 µM. The TGI with NCI-H226 lung, in the assay on NCI-H460 lung and in the assay on CCRF-CEM leukemia was > 100 µM in each case.

With `CC(=O)/C(=N\N=C(N)N)c1ccccc1`, the TGI with HT29 colon, with SW-620 colon, with OVCAR-5 ovarian, in the assay with COLO 205 colon, in the assay with SNB-75 CNS and in the assay with SN12C renal was > 100 µM throughout. The TGI with NCI-H226 lung, with NCI/ADR-RES ovarian and with NCI-H460 lung was > 100 µM each time.

With `O=S1(=O)CCC2=CC(C(F)(F)F)=CC(C(F)(F)F)=CN21`, the TGI was determined as 9.38 µM in the assay on HT29 colon; 0.779 µM in the assay on SW-620 colon; 3.93 µM with OVCAR-5 ovarian; 1.34 µM in the assay on COLO 205 colon; 4.39 µM in the assay with SNB-75 CNS; 3.38 µM in the assay with SN12C renal. The TGI with NCI-H226 lung came out at 5.58 µM; in the assay on NCI-H460 lung, 8.01 µM; with CCRF-CEM leukemia, 2.48 µM.

Regarding `C=C(CN1CCN(c2ccccn2)CC1)c1ccc(C(=O)Nc2ccccc2N)cc1`, the GI50 in the assay on SW-620 colon is 1.71 µM; with OVCAR-5 ovarian, 6.1 µM; in the assay with COLO 205 colon, 1.71 µM; in the assay on SNB-75 CNS it was 1.48 µM; with SN12C renal, 2.35 µM; in the assay on NCI/ADR-RES ovarian, 1.31 µM. In the assay with NCI-H460 lung, the GI50 was 2.81 µM. Moreover, the TGI in the assay on SW-620 colon is > 50 µM; in the assay on OVCAR-5 ovarian it was 26.4 µM; with COLO 205 colon, 5.74 µM; with SNB-75 CNS, 4.68 µM; in the assay on SN12C renal, > 50 µM; in the assay on NCI/ADR-RES ovarian, 5.05 µM. In the assay on NCI-H460 lung, the TGI was > 50 µM.

On to `COc1ccc(C(=O)Cn2c(C(=O)c3ccc(Cl)cc3)nc(-c3ccccc3)c2-c2ccccc2)cc1`, for which the GI50 in the assay with HT29 colon was > 100 µM; in the assay with SW-620 colon it was > 100 µM; in the assay with OVCAR-5 ovarian, > 100 µM; in the assay on COLO 205 colon it was > 100 µM; in the assay with SNB-75 CNS, 85.8 µM; in the assay on SN12C renal it was > 100 µM. Also, the GI50 with NCI-H226 lung, in the assay on NCI/ADR-RES ovarian and in the assay on NCI-H460 lung was > 100 µM each time. Also, the TGI in the assay with HT29 colon, with SW-620 colon, with OVCAR-5 ovarian, in the assay with COLO 205 colon, with SNB-75 CNS and in the assay on SN12C renal was > 100 µM each time. Besides, the TGI in the assay with NCI-H226 lung, in the assay with NCI/ADR-RES ovarian and in the assay on NCI-H460 lung was > 100 µM each time.

`CCOC(=O)NN1C(=O)C(=P(c2ccccc2)(c2ccccc2)c2ccccc2)C(C(=O)OC)=C1C`: the TGI in the assay on HT29 colon, with SW-620 colon, in the assay with OVCAR-5 ovarian, with COLO 205 colon, in the assay on SNB-75 CNS and with SN12C renal was > 100 µM throughout. Further, the TGI in the assay with NCI-H226 lung, in the assay with NCI-H460 lung and in the assay on CCRF-CEM leukemia was > 100 µM each time.

Turning to `COC(=O)C1=C(O)c2cc(OC)c(OC)c(OC)c2C(c2ccc3c(c2)OCO3)[C@@H]1C(=O)OC` (some centres undefined), the TGI in the assay with HT29 colon was 12.7 µM; with SW-620 colon it was > 100 µM; with OVCAR-5 ovarian it was > 100 µM; with COLO 205 colon, 6.37 µM; in the assay with SNB-75 CNS it was > 100 µM; in the assay with SN12C renal it was > 100 µM. The TGI in the assay with NCI-H226 lung, with NCI-H460 lung and with CCRF-CEM leukemia was > 100 µM each time.

Regarding `CC(NC1CCCC[C@@H]1O)c1ccccc1` (some centres undefined), the TGI in the assay with HT29 colon, in the assay on SW-620 colon, in the assay with OVCAR-5 ovarian, with COLO 205 colon, in the assay with SNB-75 CNS and with SN12C renal was > 100 µM throughout. For the same molecule, the TGI in the assay with NCI-H226 lung, with NCI-H460 lung and in the assay on CCRF-CEM leukemia was > 100 µM throughout.
